According to ChEMBL document CHEMBL1155707, “New lipopeptides from the Caribbean cyanobacterium Lyngbya majuscula” (J Nat Prod, 2001):

Key:
Format in all cases: functional, cell-based
[1] = test system: HT-29; experiment: Cytotoxicity against human HT-29 cells
[2] = test system: A549; experiment: Cytotoxicity against human A549 cells
[3] = test system: SK-MEL-28; experiment: Cytotoxicity against human SK-MEL-28 cells
[4] = test system: P388; experiment: Cytotoxicity against mouse P388 cells

Measured: IC50

C[C@@H](c1nccs1)N(C)C(=O)[C@H](C[C@H](C)C(Cl)(Cl)Cl)NC(=O)C[C@H](C)C(Cl)(Cl)Cl [PSEUDODYSIDENIN]
> 1 µg/mL: all assays above
